{
  "source": "paper PMC12487887",
  "about": "“Global conformations of Pichia pastoris complex I are distinguished by the binding of a unique interdomain bridging subunit” (Science Advances, 2025)",
  "molecules": {"B1": {"name": "NUQM, supernumerary interdomain bridge subunit of Pichia pastoris complex I (natural protein)", "chain": "ALATIRNDLKLNFRFKADVLEKNVIRSILAETKNLEIDNKDKDLDEFKLYDLLSKMIKQRQDSAAIYLKEGSPDRFRQTGWNELREVDYITKYLEALPVASAEEIEAKVEPIVQSVLEEEGELKSPKEIFSRIPWKVVNQDWQASEGAVKNTVLRLYNLYKTDA"}},
  "key": {"[1]": {"molecular_target": "T1, Pp-CI (flavin site; NDUFV1) (Komagataella pastoris, UniProt E1UWA7)", "T1 construct": "gene nubm; native mitochondrial complex I, 44 subunits, purified in LMNG, in cMSP26 nanodiscs or proteoliposomes; with NADH-ubiquinone oxidoreductase 24 kDa subunit, mitochondrial; NADH-ubiquinone oxidoreductase 75 kDa subunit, mitochondrial", "T1 sequence (E1UWA7 17-473)": "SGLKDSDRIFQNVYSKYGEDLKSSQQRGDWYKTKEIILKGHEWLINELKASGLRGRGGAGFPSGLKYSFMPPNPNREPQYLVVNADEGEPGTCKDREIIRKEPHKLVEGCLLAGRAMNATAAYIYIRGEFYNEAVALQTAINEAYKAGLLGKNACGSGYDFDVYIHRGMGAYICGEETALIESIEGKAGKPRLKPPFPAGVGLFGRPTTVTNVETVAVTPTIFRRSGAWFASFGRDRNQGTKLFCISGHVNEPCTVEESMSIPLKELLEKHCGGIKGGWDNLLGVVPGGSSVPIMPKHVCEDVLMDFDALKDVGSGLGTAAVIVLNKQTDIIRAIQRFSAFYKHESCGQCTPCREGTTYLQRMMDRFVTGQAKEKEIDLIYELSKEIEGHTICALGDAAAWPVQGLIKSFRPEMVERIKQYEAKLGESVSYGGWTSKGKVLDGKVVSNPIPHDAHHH", "assay": "NADH:APAD+ oxidoreduction in proteoliposomes", "format": "biochemical", "details": "500 μM APAD+, 100 μM NADH; pH 7.5, 32°C"}, "[2]": {"molecular_target": "T1, Pp-CI (flavin site; NDUFV1)", "assay": "cryo-EM structure", "format": "binding", "details": "state 1, closed, 2.8 Å"}, "[3]": {"molecular_target": "T1, Pp-CI (flavin site; NDUFV1)", "assay": "NADH:APAD+ and NADH:O2 oxidoreduction, absorbance […]-380 nm", "format": "biochemical", "details": "100 μM NADH with 500 μM APAD+ or 200 μM NADH with Q10/AOX; pH 7.5, 32°C"}, "NDUFA9 subunit of Pp-CI": {"molecular_target": "T2, NDUFA9 subunit of Pp-CI (Komagataella pastoris, UniProt E1UWA9)", "T2 construct": "gene nuem; supernumerary subunit within native 44-subunit mitochondrial complex I in cMSP26 nanodiscs", "T2 sequence (E1UWA9 36-384)": "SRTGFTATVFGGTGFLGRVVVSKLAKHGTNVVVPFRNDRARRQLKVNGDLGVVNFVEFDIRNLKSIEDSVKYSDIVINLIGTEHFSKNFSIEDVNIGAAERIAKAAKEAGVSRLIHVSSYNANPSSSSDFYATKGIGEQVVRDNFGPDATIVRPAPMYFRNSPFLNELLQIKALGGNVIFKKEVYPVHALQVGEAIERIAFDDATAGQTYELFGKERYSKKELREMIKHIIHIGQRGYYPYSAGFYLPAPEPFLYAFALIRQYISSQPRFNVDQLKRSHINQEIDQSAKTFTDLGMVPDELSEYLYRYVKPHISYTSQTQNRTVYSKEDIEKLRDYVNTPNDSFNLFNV", "assay": "cryo-EM structure", "format": "binding", "details": "state 1, closed, 2.8 Å"}, "Pp-CI (Q10-binding site)": {"molecular_target": "T3, Pp-CI (Q10-binding site) (Komagataella pastoris, UniProt E1UWA8+E1UWB5+E1UWC2)", "T3 construct": "gene nucm; native mitochondrial complex I, 44 subunits, purified in LMNG, in cMSP26 nanodiscs or proteoliposomes; with NADH-ubiquinone oxidoreductase 51 kDa subunit, mitochondrial; NADH-ubiquinone oxidoreductase 24 kDa subunit, mitochondrial", "assay": "NADH:O2 oxidoreduction with AOX, nanodiscs", "format": "biochemical", "details": "200 μM NADH; Q10 in bilayer; pH 7.5, 32°C"}, "[4]": {"molecular_target": "Pichia pastoris complex I (NADH:ubiquinone oxidoreductase), the 43 subunits other than NUQM, with the flavoprotein subcomplex (Pichia pastoris (endogenous in strain X-33))", "assay": "cryo-EM structure; Pp-CI purified in LMNG and reconstituted into cMSP26 nanodiscs with DOPC:DOPE:CDL and Q10, 10 mM Mops pH 7.5, 50 mM KCl; Titan Krios 300 kV; particles classified into four states (state 1 closed with NUQM 2.80 A; state 3 open without NUQM 3.34 A)"}, "[5]": {"molecular_target": "Pichia pastoris complex I (NADH:ubiquinone oxidoreductase), the 43 subunits other than NUQM, with the flavoprotein subcomplex (Pichia pastoris (endogenous in strain X-33))", "assay": "cryo-EM structure; Pp-CI reconstituted into proteoliposomes (Pp-CI-PLs), 10 mM Mops pH 7.5, 50 mM KCl; Talos Arctica 200 kV; focused 3D classification on NUQM and on the flavoprotein; NUQM-bound map 4.7 A"}},
  "data": [
    {"molecule": "CC(=O)c1ccc[n+]([C@@H]2O[C@H](COP(=O)(O)OP(=O)(O)OC[C@H]3O[C@@H](n4cnc5c(N)ncnc54)[C@H](O)[C@@H]3O)[C@@H](O)[C@H]2O)c1", "note": "[APAD^+]", "values": [
      {"measurement": "NADH:APAD+ oxidoreduction in proteoliposomes", "setting": "[1]", "value": "the consistent rates of the flavin-localized NADH:APAD^+ reaction"}
    ]},
    {"molecule": "Cc1cc2nc3c(=O)[nH]c(=O)nc-3n(C[C@H](O)[C@H](O)[C@H](O)COP(=O)(O)O)c2cc1C", "note": "[FMN]", "values": [
      {"measurement": "cryo-EM structure", "setting": "[2]", "value": "canonical CI subunits that contain the FMN in the active site for NADH oxidation"}
    ]},
    {"molecule": "NC(=O)C1=CN([C@@H]2O[C@H](COP(=O)(O)OP(=O)(O)OC[C@H]3O[C@@H](n4cnc5c(N)ncnc54)[C@H](O)[C@@H]3O)[C@@H](O)[C@H]2O)C=CC1", "note": "[NADH]", "values": [
      {"measurement": "NADH:APAD+ and NADH:O2 oxidoreduction, absorbance 340-380 nm", "setting": "[3]", "value": "the consistent rates of the flavin-localized NADH:APAD^+ reaction"}
    ]},
    {"molecule": "NC(=O)C1=CN([C@@H]2O[C@H](COP(=O)(O)OP(=O)(O)OC[C@H]3O[C@@H](n4cnc5c(N)ncnc54)[C@H](OP(=O)(O)O)[C@@H]3O)[C@@H](O)[C@H]2O)C=CC1", "note": "[NADPH]", "values": [
      {"measurement": "cryo-EM structure", "setting": "NDUFA9 subunit of Pp-CI", "value": "bound in NDUFA9"}
    ]},
    {"molecule": "COC1=C(OC)C(=O)C(C/C=C(\\C)CC/C=C(\\C)CC/C=C(\\C)CC/C=C(\\C)CC/C=C(\\C)CC/C=C(\\C)CC/C=C(\\C)CC/C=C(\\C)CC/C=C(\\C)CCC=C(C)C)=C(C)C1=O", "note": "[Q10]", "values": [
      {"measurement": "NADH:O2 oxidoreduction with AOX, nanodiscs", "setting": "Pp-CI (Q10-binding site)", "value": "confirming the rapid redox-cycling turnover of the Q10 contained in the ND bilayer"}
    ]},
    {"molecule": "B1", "values": [
      {"measurement": "percent of flavoprotein-containing particles with NUQM bound", "setting": "[4]", "value": 68.1, "unit": "%"},
      {"measurement": "percent of outward-facing, flavoprotein-bound particles with NUQM bound", "setting": "[5]", "value": 77, "unit": "%"}
    ]}
  ]
}
